Experimental data from patent US8759051B2, “Control of contaminant microorganisms in fermentation processes with peroxygen-releasing compounds” (E I du Pont de Nemours and Company, priority 2010, dated 2014).

System: lactic acid bacteria (LAB)
Test: Susceptibility of lactic acid bacteria cocktail to sodium percarbonate in diluted molasses (Example 1)
Assay type: cell-based
Settings: for LAB level after treatment: approx. 2 hours, 32° C., molasses
Protocol: In this example, the susceptibility of yeast and lactic acid bacteria to sodium percarbonate was determined in molasses. Molasses was prepared by diluting molasses (B&G Foods, Inc., Roseland, N.J.) 1 part to 3.1 parts water to mimic conditions used for ethanol production based on a molasses feedstock (common in Latin America and Asia). The diluted molasses was autoclaved at 121° C. for 15 minutes to sterilize prior to use in the experiment. Cultures of lactic acid bacteria (LAB) (Lactobacillus plantarum, Lactobacillus brevis, Lactobacillus fermentum, and Lactobacillus paracasei) were prepared by inoculating MRS broth (available from Difco Laboratories Inc., Sparks, Md.) and incubating overnight at 32° C. with agitation. The bacteria were selected because they had previously been isolated from contaminated ethanol fermentation processes. Cultures of each organism were combined to create a bacterial cocktail and diluted in molasses to give 1.0×10^7, 1.0×10^6, and 1.0×10^5 bacteria/ml, or commonly expressed as colony forming units per milliliter or CFU/ml). Sodium percarbonate (Alfa Aesar, Ward Hill, Mass.) was prepared as a 2% solution immediately prior to use. Percarbonate was added to tubes containing 25 ml of inoculated molasses to give concentrations of 0, 100, 250, 500 and 1000 ppm. Tubes were incubated at 32° C. with agitation. After approximately 2 hours, bacterial levels present in each tube were enumerated by plating decimal dilutions of molasses onto the surface of MRS agar plates (Difco Laboratories Inc., Sparks, Md.). Plates were incubated overnight at 32° C.

SMILES: O=C([O-])[O-].O=C([O-])[O-].OO.OO.OO.[Na+].[Na+].[Na+].[Na+] [Sodium percarbonate, sodium percarbonate]
- log reductions of LAB (1000 ppm percarbonate): > 6 log
- LAB level (below detectable limit of the assay) (1000 ppm percarbonate, all of the tested levels of LAB): < 10 CFU/ml
- reduction in the level of bacteria (initial LAB 1.0×10^6 or 1.0×10^7 CFU/ml, 500 ppm percarbonate): 2 log
- LAB level after treatment (inoculum 1.0 × 10^5 CFU/ml, 100 ppm percarbonate): 8.90 × 10^4 CFU/ml
- LAB level after treatment (inoculum 1.0 × 10^5 CFU/ml, 250 ppm percarbonate): 1.80 × 10^3 CFU/ml
- LAB level after treatment (inoculum 1.0 × 10^5 CFU/ml, 500 ppm percarbonate): 1.70 × 10^2 CFU/ml
- LAB level after treatment (inoculum 1.0 × 10^5 CFU/ml, 1000 ppm percarbonate): <10 CFU/ml
- LAB level after treatment (inoculum 1.0 × 10^6 CFU/ml, 100 ppm percarbonate): 8.50 × 10^5 CFU/ml
- LAB level after treatment (inoculum 1.0 × 10^6 CFU/ml, 250 ppm percarbonate): 1.55 × 10^5 CFU/ml
- LAB level after treatment (inoculum 1.0 × 10^6 CFU/ml, 500 ppm percarbonate): 1.17 × 10^4 CFU/ml
- LAB level after treatment (inoculum 1.0 × 10^6 CFU/ml, 1000 ppm percarbonate): <10 CFU/ml
- LAB level after treatment (inoculum 1.0 × 10^7 CFU/ml, 100 ppm percarbonate): 6.90 × 10^6 CFU/ml
- LAB level after treatment (inoculum 1.0 × 10^7 CFU/ml, 250 ppm percarbonate): 1.68 × 10^6 CFU/ml
- LAB level after treatment (inoculum 1.0 × 10^7 CFU/ml, 500 ppm percarbonate): 1.20 × 10^5 CFU/ml
- LAB level after treatment (inoculum 1.0 × 10^7 CFU/ml, 1000 ppm percarbonate): <10 CFU/ml
- reduction in the level of bacteria (starting LAB 1.0×10^5 CFU/ml, 500 ppm percarbonate, two hours): ~3 log
